Results published in publication PMC6315362, “Cytotoxic Potential of the Novel Horseshoe Crab Peptide Polyphemusin III” (Marine Drugs, 2018).
Where a SMILES comes first, the peptide text is derived from it. Bridges are numbered along the chain shown (N, C = ends).

Key:
E. coli ML-35p = assay: Antimicrobial assay, broth microdilution MIC; type: cell-based, Escherichia coli; settings: Gram -, MH medium with NaCl, peptide diluted in 0.1% BSA, 10^6 CFU/mL, 24 h 37 °C, median of three independent triplicated experiments
Experimental: (§1) Bacterial test cultures were grown in the Mueller-Hinton (MH) medium at 37 °C to mid-log phase and then diluted with the 2 x MH medium supplemented with 1.8% NaCl. 50 µL of the bacterial suspension with a final cell concentration of 10^6 CFU/mL were added to aliquots of 50 µL of the peptide solutions and serially diluted with sterilized 0.1% bovine serum albumin in 96-well flat-bottom polystyrene microplates (Eppendorf, Hamburg, Germany). Bacterial cells were incubated for 24 h at 37 °C and 900 rpm on the plate thermoshaker (Biosan, Riga, Latvia). The minimum inhibitory concentrations (MIC) were determined as the lowest peptide concentration that prevented growth of a test microorganism observed as visible turbidity. The results were expressed as median values of three independent triplicated experiments. Assessment of antimicrobial activities of the recombinant PM III, other polyphemusins, and tachyplesins was conducted against Gram-negative (Escherichia coli ML-35p, Klebsiella pneumoniae (clinical isolate, CI 287), Pseudomonas aeruginosa PAO1) and Gram-positive (Staphylococcus aureus ATCC 29213, Staphylococcus aureus 209P, Bacillus subtilis B-886, Micrococcus luteus B-1314) bacteria.

human red blood cells = assay: Hemolytic activity assay; type: cell-based; settings: for hemolysis at the maximal concentration: 100 µM peptide, human red blood cells 4% (v/v) in PBS pH 7.4, 1.5 h 37 °C, 0.1% Triton X-100 = 100%
Experimental: Testing of the hemolytic activity of polyphemusins and tachyplesins was performed using fresh human red blood cells (hBRC). Permeabilization of erythrocyte cytoplasmic membrane results in lysis followed by the release of hemoglobin. hBRC were washed three times with phosphate buffered saline (PBS: 10 mM Na2HPO4, 1.76 mM K2HPO4, pH 7.4, containing […], and 2.7 mM KCl). Two-fold serial dilutions of the peptide solutions were added to 50 μL aliquots of hRBC in the 96-well microplate. The final hBRC concentration was of 4% (v/v) in each well, and the final volume of suspension was 100 μL. After incubation of suspensions for 1.5 h at 37 °C under stirring at 1000 rpm, centrifugation of plates was done at 700 g for 5 min. The supernatant 50 μL aliquots were then transferred into flat-bottomed 96-well microplates. The absorbance at 405 nm was measured in a microplate reader (Eppendorf, Hamburg, Germany), allowing the detection of hemoglobin release. 0.1% Triton X-100 caused a complete lysis of erythrocytes, thus hBRC treated with Triton X-100 were used as a positive control. […] The percentage of hemolysis was calculated using the following Equation (1):Hemolysis (%) = (OD405 sample − OD405 0% lysis control)/(OD405 100% lysis control − OD405 0% lysis control) × 100%(1)
The quantitative data resulted from two series of experiments were represented as average means with standard deviations. The experiments were carried out using hBRC obtained from human blood samples of independent donors.

[1] = RP-HPLC retention time as measure of hydrophobicity; type: physicochemical; settings: semi-preparative RP-HPLC, C18 column, linear gradient 5 to 80% (v/v) acetonitrile in water with 0.1% TFA within 1 h; used as indicator of hydrophobicity
Description: The PM III IC50 values were lower than those determined for PM I and PM II. We speculate that the higher cytotoxicity of PM III might be due to its higher hydrophobicity. In comparison to other tested peptides, the retention time of PM III measured during RP-HPLC indicated its higher hydrophobicity (Table 1). […] Increased hydrophobicity of these analogs caused higher cytotoxic effects. […] Cell membranes contain different phospholipids, which sustain the amphipathic features due to the formation of hydrophilic and hydrophobic domains in the membrane structure. Well-known differences between the composition of bacterial and mammalian cell membranes provide the evidence for selectivity of the peptides’ action. Bacterial membranes predominantly consist of phosphatidylserine, phosphatidylglycerol, and cardiolipin having a net negative charge. Tumor cell bilayers are also enriched in anionic molecules, such as phosphatidylserine, sialylated gangliosides, O-glycosylated mucins, and heparin sulfate. In contrast, zwitterionic phospholipids—phosphatidylcholine, phosphatidylethanolamine, and sphingomyelin—are abundant in the cytoplasmic membranes of non-cancer mammalian cells. Electrically neutral normal mammalian membranes prevent their recognition by positively charged antimicrobial peptides, and binding to these membranes is enabled by hydrophobic interactions. Thus, modulation of hydrophobicity of antimicrobial peptides, and also peptoid molecules, may be followed by non-specific interaction with erythrocytes as it was shown in previously published studies. […] Suboptimal high hydrophobic properties may not only result in increased toxicity to erythrocytes, but even in a reduction of antibacterial activity. Several protegrin-1 synthetic analogs with different hydrophobicities were characterized earlier. The analog with substitutions of valine by leucine that was more hydrophobic than naturally occurring protegrin-1 and the analog with substitutions of valine by fluorinated leucine had the most hydrophobic properties than other tested peptides. […] Therefore, half-hemolysis concentration and IC50 effective concentration were in different ranges.

B. subtilis B-886 = assay: Antimicrobial assay, broth microdilution MIC; type: cell-based, Bacillus subtilis; settings: B. subtilis B-886, Gram +, MH medium with NaCl, 24 h 37 °C, median of three independent triplicated experiments
Experimental: as §1

Row | Compound | MICs (E. coli ML-35p) [µM] | hemolysis at the maximal concentration (human red blood cells) | RP-HPLC Retention Time [1] [min] | MICs (B. subtilis B-886) [µM] | HC50 relative to IC50 measured for the HL-60 cell line (human red blood cells; HC50 / IC50 (HL-60)) [fold] | half-hemolysis concentration (HC50) (human red blood cells; fresh human red blood cells 4% (v/v) in PBS pH 7.4, 1.5 h 37 °C, absorbance 405 nm, two independent series of triplicated experiments) [µM]
1 | CC(C)[C@@H]1NC(=O)[C@H](CCCNC(=N)N)NC(=O)[C@H](Cc2ccccc2)NC(=O)[C@@H](NC(=O)[C@H](Cc2c[nH]c3ccccc23)NC(=O)[C@H](CCCNC(=N)N)NC(=O)[C@@H](N)CCCNC(=N)N)CSSC[C@@H](C(=O)N[C@@H](CCCNC(=N)N)C(=O)O)NC(=O)[C@H](CCCCN)NC(=O)[C@H](CCCNC(=N)N)NC(=O)[C@H](Cc2ccc(O)cc2)NC(=O)[C@@H]2CSSC[C@H](NC1=O)C(=O)N[C@@H](Cc1ccc(O)cc1)C(=O)N[C@@H](CCCNC(=N)N)C(=O)NCC(=O)N[C@@H](Cc1ccccc1)C(=O)N2 [PM I, polyphemusin I] (H-RRWCFRVCYRGFCYRKCR-OH; disulfide 4-17, 8-13 (inferred); N-terminus assumed) | 0.062 | ~ 45% | 35.5 | 0.25 | – | –
2 | CC(C)[C@@H]1NC(=O)[C@H](CCCNC(=N)N)NC(=O)[C@H](Cc2ccccc2)NC(=O)[C@@H](NC(=O)[C@H](Cc2c[nH]c3ccccc23)NC(=O)[C@H](CCCNC(=N)N)NC(=O)[C@@H](N)CCCNC(=N)N)CSSC[C@@H](C(=O)N[C@@H](CCCNC(=N)N)C(=O)O)NC(=O)[C@H](CCCCN)NC(=O)[C@H](CCCNC(=N)N)NC(=O)[C@H](Cc2ccc(O)cc2)NC(=O)[C@@H]2CSSC[C@H](NC1=O)C(=O)N[C@@H](Cc1ccc(O)cc1)C(=O)N[C@@H](CCCCN)C(=O)NCC(=O)N[C@@H](Cc1ccccc1)C(=O)N2 [PM II, polyphemusin II] (H-RRWCFRVCYKGFCYRKCR-OH; disulfide 4-17, 8-13 (inferred); N-terminus assumed) | 0.031 | ~ 30% | 35.4 | 0.5 | – | –
3 | CC(C)[C@@H]1NC(=O)[C@H](CCCNC(=N)N)NC(=O)[C@H](Cc2ccccc2)NC(=O)[C@@H](NC(=O)CNC(=O)[C@H](CCCNC(=N)N)NC(=O)[C@@H](N)CCCNC(=N)N)CSSC[C@@H](C(=O)N[C@@H](CCCNC(=N)N)C(=O)O)NC(=O)[C@H](CCCNC(=N)N)NC(=O)[C@H](CCC(N)=O)NC(=O)[C@H](Cc2ccccc2)NC(=O)[C@@H]2CSSC[C@H](NC1=O)C(=O)N[C@@H](Cc1ccc(O)cc1)C(=O)N[C@@H](CCCNC(=N)N)C(=O)NCC(=O)N[C@@H](Cc1ccccc1)C(=O)N2 [PM III, polyphemusin III] (H-RRGCFRVCYRGFCFQRCR-OH; disulfide 4-17, 8-13 (inferred); N-terminus assumed) | 0.25 | – | 36.2 | 0.5 | 18 | 46
4 | CC[C@H](C)[C@@H]1NC(=O)CNC(=O)[C@H](CCCNC(=N)N)NC(=O)[C@H](Cc2ccc(O)cc2)NC(=O)[C@@H]2CSSC[C@H](NC1=O)C(=O)N[C@@H](Cc1ccc(O)cc1)C(=O)N[C@@H](CCCNC(=N)N)C(=O)N[C@@H](CCCNC(=N)N)C(=O)N[C@H](C(=O)N[C@@H](CCCNC(=N)N)C(=O)O)CSSC[C@H](NC(=O)[C@H](Cc1c[nH]c3ccccc13)NC(=O)[C@@H](N)CCCCN)C(=O)N[C@@H](Cc1ccccc1)C(=O)N[C@@H](CCCNC(=N)N)C(=O)N[C@@H](C(C)C)C(=O)N2 [TP I, tachyplesin I] (H-KWCFRVCYRGICYRRCR-OH; disulfide 3-16, 7-12 (inferred); N-terminus assumed) | 0.062 | 38% | 35.5 | 0.5 | – | –
5 | CC[C@H](C)[C@@H]1NC(=O)CNC(=O)[C@H](CCCNC(=N)N)NC(=O)[C@H](Cc2ccc(O)cc2)NC(=O)[C@@H]2CSSC[C@H](NC1=O)C(=O)N[C@@H](Cc1ccc(O)cc1)C(=O)N[C@@H](CCCNC(=N)N)C(=O)N[C@@H](CCCCN)C(=O)N[C@H](C(=O)N[C@@H](CCCNC(=N)N)C(=O)O)CSSC[C@H](NC(=O)[C@H](Cc1c[nH]c3ccccc13)NC(=O)[C@@H](N)CCCNC(=N)N)C(=O)N[C@@H](Cc1ccccc1)C(=O)N[C@@H](CCCNC(=N)N)C(=O)N[C@@H](C(C)C)C(=O)N2 [TP II, tachyplesin II] (H-RWCFRVCYRGICYRKCR-OH; disulfide 3-16, 7-12 (inferred); N-terminus assumed) | 0.062 | 33% | 35.9 | 0.5 | – | –
6 | CC[C@H](C)[C@@H]1NC(=O)CNC(=O)[C@H](CCCNC(=N)N)NC(=O)[C@H](Cc2ccc(O)cc2)NC(=O)[C@@H]2CSSC[C@H](NC1=O)C(=O)N[C@@H](Cc1ccc(O)cc1)C(=O)N[C@@H](CCCNC(=N)N)C(=O)N[C@@H](CCCCN)C(=O)N[C@H](C(=O)N[C@@H](CCCNC(=N)N)C(=O)O)CSSC[C@H](NC(=O)[C@H](Cc1c[nH]c3ccccc13)NC(=O)[C@@H](N)CCCCN)C(=O)N[C@@H](Cc1ccccc1)C(=O)N[C@@H](CCCNC(=N)N)C(=O)N[C@@H](C(C)C)C(=O)N2 [TP III, tachyplesin III] (H-KWCFRVCYRGICYRKCR-OH; disulfide 3-16, 7-12 (inferred); N-terminus assumed) | 0.062 | 20% | 35.5 | 1 | – | –
